Values quoted from earlier work, collected in patent US20190125685A1, “COMPOSITE CAPSULE PREPARATION CONTAINING TADALAFIL AND TAMSULOSIN AND HAVING IMPROVED STABILITY AND ELUTION RATE” (HANMI PHARM. CO., LTD., priority 2016, published 2019).

Details: in vivo

## CN1CC(=O)N2[C@H](c3ccc4c(c3)OCO4)c3[nH]c4ccccc4c3C[C@@H]2C1=O [Tadalafil]
  Half-life relative to that of sildenafil or vardenafil: ≥ 3 times
